# Experimental data from PubChem BioAssay (NCI).
#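 Dose response: 5 concentrations. Exposure: 48 h. Format: 96-well plates. Endpoint: linear interpolation; highest concentration if not reached. TGI: concentration producing complete growth inhibition.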
# Columns and labels:
# Test in all cases: NCI-60 cell line screen, 48 h
# NCI-H23 lung = tested on: NCI-H23 lung
# UACC-257 melanoma = tested on: UACC-257 melanoma
# SK-MEL-2 melanoma = tested on: SK-MEL-2 melanoma
# HCC-2998 colon = tested on: HCC-2998 colon
# LOX IMVI melanoma = tested on: LOX IMVI melanoma
# CCRF-CEM leukemia = tested on: CCRF-CEM leukemia
# OVCAR-8 ovarian = tested on: OVCAR-8 ovarian
# KM20L2 colon = tested on: KM20L2 colon
# K-562 leukemia = tested on: K-562 leukemia
# NCI-H226 lung = tested on: NCI-H226 lung
# LXFL 529 NSCLC = tested on: LXFL 529 NSCLC
# M19-MEL melanoma = tested on: M19-MEL melanoma
# HL-60(TB) leukemia = tested on: HL-60(TB) leukemia
# MOLT-4 leukemia = tested on: MOLT-4 leukemia
# SNB-75 CNS = tested on: SNB-75 CNS
# RXF 393 renal = tested on: RXF 393 renal
# HCT-15 colon = tested on: HCT-15 colon
# SK-MEL-28 melanoma = tested on: SK-MEL-28 melanoma
# SN12C renal = tested on: SN12C renal
# HT29 colon = tested on: HT29 colon
# U251 CNS = tested on: U251 CNS
# SNB-19 CNS = tested on: SNB-19 CNS
# UACC-62 melanoma = tested on: UACC-62 melanoma
# HCT-116 colon = tested on: HCT-116 colon
# MALME-3M melanoma = tested on: MALME-3M melanoma
# RXF-631 renal = tested on: RXF-631 renal
# SR leukemia = tested on: SR leukemia
# NCI-H460 lung = tested on: NCI-H460 lung
# SNB-78 CNS = tested on: SNB-78 CNS
# IGROV1 ovarian = tested on: IGROV1 ovarian
# SF-268 CNS = tested on: SF-268 CNS
# DMS 114 small cell lung = tested on: DMS 114 small cell lung
# EKVX NSCLC = tested on: EKVX NSCLC
# OVCAR-5 ovarian = tested on: OVCAR-5 ovarian
# SW-620 colon = tested on: SW-620 colon
# SF-295 CNS = tested on: SF-295 CNS
# XF 498 CNS = tested on: XF 498 CNS
# 786-0 renal = tested on: 786-0 renal
# M14 melanoma = tested on: M14 melanoma
# OVCAR-3 ovarian = tested on: OVCAR-3 ovarian
# RPMI-8226 leukemia = tested on: RPMI-8226 leukemia
# TK-10 renal = tested on: TK-10 renal
# A549 NSCLC = tested on: A549 NSCLC
# DLD-1 colon = tested on: DLD-1 colon
# UO-31 renal = tested on: UO-31 renal
# SK-MEL-5 melanoma = tested on: SK-MEL-5 melanoma
# ACHN renal = tested on: ACHN renal
# SF-539 CNS = tested on: SF-539 CNS
# OVCAR-4 ovarian = tested on: OVCAR-4 ovarian
# CAKI-1 renal = tested on: CAKI-1 renal
# A498 renal = tested on: A498 renal
# HOP-92 NSCLC = tested on: HOP-92 NSCLC
# KM12 colon = tested on: KM12 colon
# DMS 273 small cell lung = tested on: DMS 273 small cell lung
# NCI-H522 lung = tested on: NCI-H522 lung
# HOP-62 NSCLC = tested on: HOP-62 NSCLC
# COLO 205 colon = tested on: COLO 205 colon
compound,measurement,setting,value
O=C(CC1C(=O)Nc2ccccc2S1(=O)=O)Nc1cc(Cl)ccc1Cl (stereo not given),TGI,NCI-H23 lung,40.4 µM
same,TGI,UACC-257 melanoma,> 100 µM
same,TGI,SK-MEL-2 melanoma,35.4 µM
same,TGI,HCC-2998 colon,36.2 µM
same,TGI,LOX IMVI melanoma,18.1 µM
same,TGI,CCRF-CEM leukemia,62.5 µM
same,TGI,OVCAR-8 ovarian,41.9 µM
same,TGI,KM20L2 colon,32.6 µM
same,TGI,K-562 leukemia,42 µM
same,TGI,NCI-H226 lung,35.8 µM
same,TGI,LXFL 529 NSCLC,27.1 µM
same,TGI,M19-MEL melanoma,34.1 µM
same,TGI,HL-60(TB) leukemia,35.3 µM
same,TGI,MOLT-4 leukemia,23.2 µM
same,TGI,SNB-75 CNS,31 µM
same,TGI,RXF 393 renal,32.7 µM
same,TGI,HCT-15 colon,27.5 µM
same,TGI,SK-MEL-28 melanoma,41 µM
same,TGI,SN12C renal,30.2 µM
same,TGI,HT29 colon,34.3 µM
same,TGI,U251 CNS,22.6 µM
same,TGI,SNB-19 CNS,29.8 µM
same,TGI,UACC-62 melanoma,33.7 µM
same,TGI,HCT-116 colon,28 µM
same,TGI,MALME-3M melanoma,40.6 µM
same,TGI,RXF-631 renal,88.9 µM
same,TGI,SR leukemia,24.3 µM
same,TGI,NCI-H460 lung,30.3 µM
same,TGI,SNB-78 CNS,33.6 µM
same,TGI,IGROV1 ovarian,26.9 µM
same,TGI,SF-268 CNS,24.4 µM
same,TGI,DMS 114 small cell lung,27 µM
same,TGI,EKVX NSCLC,30 µM
same,TGI,OVCAR-5 ovarian,71.1 µM
same,TGI,SW-620 colon,40.2 µM
same,TGI,SF-295 CNS,34.4 µM
same,TGI,XF 498 CNS,27.6 µM
same,TGI,786-0 renal,20.7 µM
same,TGI,M14 melanoma,30.6 µM
same,TGI,OVCAR-3 ovarian,29 µM
same,TGI,RPMI-8226 leukemia,13.4 µM
same,TGI,TK-10 renal,39.9 µM
same,TGI,A549 NSCLC,33.1 µM
same,TGI,DLD-1 colon,33.4 µM
same,TGI,UO-31 renal,31 µM
same,TGI,SK-MEL-5 melanoma,30.3 µM
same,TGI,ACHN renal,35.7 µM
same,TGI,SF-539 CNS,7.23 µM
same,TGI,OVCAR-4 ovarian,32.8 µM
same,TGI,CAKI-1 renal,32 µM
same,TGI,A498 renal,31.4 µM
same,TGI,HOP-92 NSCLC,30.4 µM
Cc1cc2c(c3c1c1ccccc1n3C)C(=O)c1ccccc1C2=O,TGI,NCI-H23 lung,> 100 µM
same,TGI,UACC-257 melanoma,> 100 µM
same,TGI,SK-MEL-2 melanoma,> 100 µM
same,TGI,HCC-2998 colon,> 100 µM
same,TGI,LOX IMVI melanoma,> 100 µM
same,TGI,CCRF-CEM leukemia,> 100 µM
same,TGI,OVCAR-8 ovarian,> 100 µM
same,TGI,KM12 colon,> 100 µM
same,TGI,KM20L2 colon,> 100 µM
same,TGI,K-562 leukemia,> 100 µM
same,TGI,LXFL 529 NSCLC,> 100 µM
same,TGI,M19-MEL melanoma,> 100 µM
same,TGI,HL-60(TB) leukemia,> 100 µM
same,TGI,MOLT-4 leukemia,> 100 µM
same,TGI,SNB-75 CNS,> 100 µM
same,TGI,RXF 393 renal,> 100 µM
same,TGI,HCT-15 colon,> 100 µM
same,TGI,SK-MEL-28 melanoma,> 100 µM
same,TGI,SN12C renal,> 100 µM
same,TGI,HT29 colon,> 100 µM
same,TGI,U251 CNS,> 100 µM
same,TGI,SNB-19 CNS,> 100 µM
same,TGI,UACC-62 melanoma,> 100 µM
same,TGI,HCT-116 colon,> 100 µM
same,TGI,MALME-3M melanoma,> 100 µM
same,TGI,RXF-631 renal,> 100 µM
same,TGI,NCI-H460 lung,> 100 µM
same,TGI,SNB-78 CNS,> 100 µM
same,TGI,IGROV1 ovarian,> 100 µM
same,TGI,SF-268 CNS,> 100 µM
same,TGI,DMS 114 small cell lung,> 100 µM
same,TGI,EKVX NSCLC,> 100 µM
same,TGI,OVCAR-5 ovarian,> 100 µM
same,TGI,SW-620 colon,> 100 µM
same,TGI,DMS 273 small cell lung,> 100 µM
same,TGI,SF-295 CNS,> 100 µM
same,TGI,XF 498 CNS,> 100 µM
same,TGI,NCI-H522 lung,> 100 µM
same,TGI,786-0 renal,> 100 µM
same,TGI,HOP-62 NSCLC,> 100 µM
same,TGI,M14 melanoma,> 100 µM
same,TGI,OVCAR-3 ovarian,> 100 µM
same,TGI,RPMI-8226 leukemia,> 100 µM
same,TGI,TK-10 renal,> 100 µM
same,TGI,A549 NSCLC,> 100 µM
same,TGI,DLD-1 colon,> 100 µM
same,TGI,COLO 205 colon,> 100 µM
same,TGI,UO-31 renal,> 100 µM
same,TGI,SK-MEL-5 melanoma,> 100 µM
same,TGI,ACHN renal,> 100 µM
same,TGI,SF-539 CNS,> 100 µM
same,TGI,OVCAR-4 ovarian,> 100 µM
same,TGI,HOP-92 NSCLC,> 100 µM
